Test results from PMC8226474, “Design, Syntheses, and Bioevaluations of Some Novel N^2-Acryloylbenzohydrazides as Chemostimulants and Cytotoxic Agents” (Medicines, 2021).

What was measured:
HCT 116 cells = experiment: Cytotoxicity assay, HCT 116 colon cancer cells; format: cell-based, human; conditions: Homo sapiens, HCT-116, 48 h, read-out: percentage inhibition of HCT 116 cells
Text: (§1) Evaluation of the cytotoxic properties of the compounds presented in Table 1, Table 2, Table 3 and Table 4 was undertaken using the procedure outlined in [7]. In brief, the HCT 116 cells were obtained from the ATCC and cultured in McCoy’s 5A medium. The CRL 1790 cells were obtained from the ATCC and cultured in Minimum Essential Medium. The MCF-7 and MDA-MBA-231 cells were obtained from the Saskatchewan Cancer Agency and cultured in DMEM. In each assay the culture medium was supplemented with 10% fetal bovine serum and 1% penicillin–streptomycin antibiotics. The time of the bioassays was 48 h, unless indicated otherwise. All determinations were carried out in triplicate on three different occasions.

MCF-7 cells = experiment: Cytotoxicity assay, MCF-7 breast cancer cells; format: cell-based, human; conditions: for inhibition at 10 µM / inhibition at 100 µM / IC50: Homo sapiens, MCF7, 48 h; for inhibition at 10 µM / inhibition at 100 µM: read-out: percentage inhibition of MCF-7 cells; for IC50 / SI (selectivity index): Table 2; for IC50: read-out: Neoplastic Cells IC50, MCF-7; for SI (selectivity index): IC50 CRL 1790 / IC50 MCF-7
Text: as §1

MDA-MB-231 cells = experiment: Cytotoxicity assay, MDA-MB-231 breast cancer cells; format: cell-based, human; conditions: Homo sapiens, MDA-MB-231, 48 h, read-out: percentage inhibition of MDA-MB-231 cells
Text: as §1

CRL 1790 cells = experiment: Cytotoxicity assay, non-malignant CRL 1790 colon cells; format: cell-based; conditions: Homo sapiens, 48 h, Table 2, read-out: Non-Malignant CRL 1790 Cells IC50
Text: as §1

melting point [°C] | SMILES | inhibition at 10 µM (HCT 116 cells) [%] | inhibition at 100 µM (HCT 116 cells) [%] | inhibition at 10 µM (MCF-7 cells) [%] | inhibition at 100 µM (MCF-7 cells) [%] | inhibition at 10 µM (MDA-MB-231 cells) [%] | inhibition at 100 µM (MDA-MB-231 cells) [%] | IC50 (MCF-7 cells) [µM] | SI (selectivity index) (MCF-7 cells) | IC50 (CRL 1790 cells) [µM]
155 to 158 | C=CC(=O)NNC(=O)c1cccc(Cl)c1 [1f, N^2-Acryloyl-3-chlorobenzohydrazide] | 13.5 ± 1.79 | 95.7 ± 1.71 | -15.5 ± 3.38 | 85.9 ± 2.7 | 15.6 ± 3.14 | 98.7 ± 0.92 | – | – | –
172 to 175 | C=CC(=O)NNC(=O)c1ccc(Cl)c(Cl)c1 [1g, N^2-Acryloyl-3,4-dichlorobenzohydrazide] | 6.72 ± 1.97 | > 100 | -50.5 ± 3.27 | 97.4 ± 2.6 | -19.4 ± 3.01 | 139.8 ± 1.03 | – | – | –
138 to 140 | C=CC(=O)NNC(=O)c1cccc(C)c1 [1i, N^2-Acryloyl-3-methylbenzohydrazide] | 15.4 ± 2.13 | 93.9 ± 3.35 | -82.8 ± 3.48 | 44.2 ± 2.96 | -5.91 ± 3.86 | 53.3 ± 2.89 | – | – | –
157 to 160 | C=CC(=O)NNC(=O)c1ccc(C)cc1 [1k, N^2-Acryloyl-4-methylbenzohydrazide] | 11.5 ± 2.99 | > 100 | 55.3 ± 3.05 | > 100 | -8.78 ± 1.52 | 74.7 ± 2.96 | 5.54 ± 0.51 | >18.1 | > 100

The next lines start with the compound.

SMILES | melting point [°C] | inhibition at 10 µM (HCT 116 cells) [%] | inhibition at 100 µM (HCT 116 cells) [%] | inhibition at 10 µM (MCF-7 cells) [%] | inhibition at 100 µM (MCF-7 cells) [%] | inhibition at 10 µM (MDA-MB-231 cells) [%] | inhibition at 100 µM (MDA-MB-231 cells) [%] | IC50 (MCF-7 cells) [µM] | SI (selectivity index) (MCF-7 cells) | IC50 (CRL 1790 cells) [µM]
C=CC(=O)NNC(=O)c1ccc(F)cc1 [1b, N^2-Acryloyl-4-fluorobenzohydrazide] | – | -2.35 ± 2.24 | 60.7 ± 3.22 | -40.1 ± 3.34 | 33.2 ± 3.13 | -7.37 ± 1.52 | 39.9 ± 2.51 | – | – | –
C=CC(=O)NNC(=O)c1ccc(Br)cc1 [1c, N^2-Acryloyl-4-bromobenzohydrazide] | 256 to 259 | -3.28 ± 1.5 | 87.9 ± 0.91 | -4.68 ± 3.17 | 46.6 ± 3.35 | -16.5 ± 1.45 | 88.7 ± 1.26 | – | – | –
C=CC(=O)NNC(=O)c1ccccc1Cl [1e, N^2-Acryloyl-2-chlorobenzohydrazide] | 165 to 167 | 4.3 ± 1.38 | 75.7 ± 1.65 | 8.66 ± 1.81 | 75.8 ± 2.76 | -7.15 ± 2.29 | 91.9 ± 4.53 | – | – | –
C=CC(=O)NNC(=O)c1ccccc1C [1j, N^2-Acryloyl-2-methylbenzohydrazide] | 151 to 153 | 10.4 ± 1.61 | 62.1 ± 2.48 | 53.3 ± 3.07 | > 100 | -2.64 ± 2.37 | 46.8 ± 3.63 | 9.14 ± 1.31 | >10.9 | > 100
